Patent US6951881B2, “(1-substituted-indol-3-yl) alkylidenehydrazinecarboximidamide derivatives as 5-hydroxytryptamine-6 ligands” (Wyeth, priority 2002, dated 2005)
pKi: −log10 of the molar value. Counter-ions that a name gives are not always drawn. Like-named read-outs stand apart in the source and are kept apart here.

Target: T1, human cloned 5-HT6 receptors (Homo sapiens, UniProt P50406)
T1 construct: expressed in transfected cells; host or cells: HeLa cells
Assay type: binding
Conditions: for % Inhibition / inhibition at 1 µM: displacement of [3H]-LSD; for pKi: [3H]-LSD 3.0 nM, Hela cell membranes, read-out: 5-HT6 Binding Ki
Method: This operation is repeated.
The reaction is allowed to proceed in the dark for 120 min at room temperature, at which time, the bound ligand-receptor complex is filtered off on a 96 well unifilter with a Packard Filtermate® 196 Harvester. The bound complex caught on the filter disk is allowed to air dry and the radioactivity is measured in a Packard TopCount® equipped with six photomultiplier detectors, after the addition of 40.0 μl Microscint®-20 scintillant to each shallow well. The unifilter plate is heat-sealed and counted in a PackardTopCount® with a tritium efficiency of 31.0%.
Specific binding to the 5-HT6 receptor is defined as the total radioactivity bound less the amount bound in the presence of 10.0 μM unlabeled methiothepin. Binding in the presence of varying concentrations of test compound is expressed as a percentage of specific binding in the absence of test compound. The results are plotted as logit % bound versus log concentration of test compound. Nonlinear regression analysis of data points with a computer assisted program Prism® yields both the IC50 and the Ki values of test compounds with 95% confidence limits.
The amount of displacement by the test compound is given in percent (%) inhibition and is derived from the following equation: [formula] where B0 is the amount of CPM bound in the presence of the testing agent. NSB represents the CPM bound in the presence of a saturating concentration of a displacer and TB represents the total amount of CPM bound at zero (0) concentration of test compound.
Alternatively, a linear regression line of decline of data points is plotted, from which the IC50 value can be read off and the Ki value determined by solving the following equation: [formula] where L is the concentration of the radioactive ligand used and KD is the dissociation constant of the ligand for the receptor, both expressed in nM.

T1 sequence (P50406 whole entry): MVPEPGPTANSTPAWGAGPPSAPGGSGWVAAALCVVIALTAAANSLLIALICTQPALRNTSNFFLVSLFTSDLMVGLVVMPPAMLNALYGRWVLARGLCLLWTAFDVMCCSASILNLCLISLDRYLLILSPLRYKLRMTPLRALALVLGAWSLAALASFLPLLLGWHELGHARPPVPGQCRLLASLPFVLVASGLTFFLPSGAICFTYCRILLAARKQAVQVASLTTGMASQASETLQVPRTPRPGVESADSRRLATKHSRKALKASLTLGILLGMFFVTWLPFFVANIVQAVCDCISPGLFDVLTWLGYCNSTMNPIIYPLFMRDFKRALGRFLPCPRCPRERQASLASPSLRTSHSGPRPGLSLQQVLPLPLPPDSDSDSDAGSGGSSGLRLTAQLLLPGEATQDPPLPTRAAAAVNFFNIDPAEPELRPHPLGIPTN

pKi	inhibition at 1 µM (test compound dose 1000 nM) [%]	Compound	also measured
–	82.1	N=C(N)N/N=C/c1c(-c2ccccc2)[nH]c2ccccc12 [Example 42, 2-(2-Phenyl-1H-indol-3-ylmethylene)hydrazinecarboximidamide]	–
–	93.3	C/C(=N\NC(=N)N)c1c(-c2ccccc2)[nH]c2ccccc12 [Example 43, 2-[1-(2-Phenyl-1H-indol-3-yl)ethylidene]hydrazine-carboximidamide]	–
7.74	–	N=C(N)NN=Cc1c(-c2ccc(Cl)cc2)[nH]c2ccccc12 [Example 44, 2-[2-(4-chlorophenyl)-1H-indol-3-ylmethylene]hydrazinecarboximidamide]	–
–	88.6	N=C(N)NN=Cc1c(-c2ccc(F)c(Cl)c2)[nH]c2ccccc12 [Example 48, 2-[2-(3-chloro-4-fluoro-phenyl)-1H-indol-3-ylmethylene]hydrazinecarboximidamide]	–
6.96	–	N=C(N)NN=Cc1c(-c2ccc3ccccc3c2)[nH]c2ccccc12 [Example 51, 2-{[2-(naphthalen-2-yl)-1H-indol-3-yl]methylene}hydrazinecarboximidamide]	–
7.54	–	N=C(N)NN=Cc1c(-c2ccc(F)cc2)[nH]c2ccccc12 [Example 52, 2-[2-(4-fluorophenyl)-1H-indol-3-ylmethylene]hydrazinecarboximidamide]	–
–	33.7	N=C(N)NN=C(Cc1ccc(Cl)cc1)c1c(-c2ccc(Cl)cc2)[nH]c2ccccc12 [Example 53, 2-{1-[2-(4-chloro-phenyl)-1H-indol-3-yl]-2-(4-chloro-phenyl)-ethylidene}hydrazinecarboximidamide]	–
–	27	N=C(N)NN=C(c1c(-c2ccccc2)[nH]c2ccccc12)C1CCCCC1 [Example 54, 2-[cyclohexyl-(2-phenyl-1H-indol-3-yl)-methylene]hydrazinecarboximidamide]	–
–	28.5	N=C(N)NN=C(c1c(-c2ccc(Cl)cc2)[nH]c2ccccc12)C1CCCCC1 [Example 55, 2-{[2-(4-chloro-phenyl)-1H-indol-3-yl]-cyclohexyl-methylene}hydrazinecarboximidamide]	–
–	33.9	N=C(N)NN=C(c1c(-c2ccc(F)c(Cl)c2)[nH]c2ccccc12)C1CCCCC1 [Example 56, 2-{[2-(3-chloro-4-fluoro-phenyl)-1H-indol-3-yl]-cyclohexyl-methylene}hydrazinecarboximidamide]	–
–	24.4	N=C(N)NN=C(Cc1ccccc1)c1c(-c2ccccc2)[nH]c2ccccc12 [Example 59, 2-[2-phenyl-1-(2-phenyl-1H-indol-3-yl)-ethylidene]hydrazinecarboximidamide]	–
–	49.5	N=C(N)NN=C(Cc1ccccc1)c1c(-c2ccc(Cl)cc2)[nH]c2ccccc12 [Example 60, 2-{1-[2-(4-chloro-phenyl)-1H-indol-3-yl]-2-phenyl-ethylidene}hydrazinecarboximidamide]	–
–	83.9	N=C(N)NN=C(Cc1ccccc1)c1c(-c2ccc(F)c(Cl)c2)[nH]c2ccccc12 [Example 61, 2-{1-[2-(3-chloro-4-fluoro-phenyl)-1H-indol-3-yl]-2-phenyl-ethylidene}hydrazinecarboximidamide]	–
–	78.2	CC(C)CC(=NNC(=N)N)c1c(-c2ccc(Cl)cc2)[nH]c2ccccc12 [Example 62, 2-{1-[2-(4-chloro-phenyl)-1H-indol-3-yl]-3-methyl-butylidene}hydrazinecarboximidamide]	–

Second part, the compound before the results:

Compound	pKi	inhibition at 1 µM (test compound dose 1000 nM) [%]	also measured
2-[3-(2-chloro-phenyl)-1-(1,2-diphenyl-1H-indol-3-yl)-allylidene]hydrazinecarboximidamide [Example 88]	–	–	% Inhibition (test compound dose 1000 nM): 37.5%
2-{[2-(3-thienyl)-1H-indol-3-yl]-ethylidene}hydrazinecarboximidamide [Example 139]	–	–	% Inhibition (test compound dose 100 nM): 60.1%
C/C(=N\NC(=N)N)c1c[nH]c2ccc(NS(=O)(=O)c3ccccc3)cc12 [Example 7, (Z)-2-{1-[5-[(Phenylsulfonyl)amino]-1H-indol-3yl]ethylidene}hydrazinecarboximidamide Hydrochloride]	9.00	–	–
C/C(=N\NC(=N)N)c1cn(C)c2ccc(NS(=O)(=O)c3ccccc3)cc12 [Example 8, (Z)-2-{-1-[1-methyl-5-[(phenylsulfonyl)amino]-1H-indol-3-yl]ethylidene}hydrazinecarboximidamide Hydrochloride]	8.70	–	–
CC(=NNC(=N)N)c1cn(C)c2ccc(NS(=O)(=O)c3ccc(N)cc3)cc12 [Example 10]	8.40	98.7	–
CC(=NNC(=N)N)c1cn(C)c2ccc(NS(=O)(=O)c3sc4ccc(Cl)cc4c3C)cc12 [Example 16]	8.15	98.7	–
COc1ccc(S(=O)(=O)Nc2ccc3[nH]cc(C(C)=NNC(=N)N)c3c2)cc1 [Example 19]	9.00	97.4	–
COc1ccc(S(=O)(=O)Nc2ccc3c(c2)c(C(C)=NNC(=N)N)cn3C)cc1 [Example 20]	8.52	99	–
COc1ccc(S(=O)(=O)Nc2ccc3c(c2)c(C(C)=NNC(=N)N)cn3C)cc1OC [Example 23]	8.52	99.4	–
CC(=NNC(=N)N)c1cn(C)c2ccc(NS(=O)(=O)c3ccccc3Br)cc12 [Example 25]	9.00	99	–
CC(=NNC(=N)N)c1cn(C)c2ccc(NS(=O)(=O)c3ccc(Cl)cc3)cc12 [Example 29]	8.40	98.4	–
[H]/N=C(/N)NN=C(C)c1c[nH]c2ccc(NS(=O)(=O)c3ccc(-c4ccccc4)cc3)cc12 [Example 35, (Z)-2-[1-[5-[(4-biphenylsulfonyl)amino]-1H-indol-3-yl]ethylidene]hydrazinecarboximidamide]	–	96.4	–
Clc1ccc(-c2[nH]c3ccccc3c2C=NNC2=NCCCN2)cc1 [Example 45, N-[2-(4-chlorophenyl)-1H-indol-3-ylmethylene]-N′-(1,4,5,6-tetrahydropyrimidin-2-yl)hydrazine]	–	68.5	–
CN(N=Cc1c(-c2ccc(Cl)cc2)[nH]c2ccccc12)C1=NCCN1 [Example 46, N′-[2-(4-chlorophenyl)-1H-indol-3-ylmethylene]-N-(4,5-dihydro-1H-imidazol-2-yl)-N-methylhydrazine]	8.00	96.5	–
Clc1ccc(-c2[nH]c3ccccc3c2C=NNC2=NCCN2)cc1 [Example 47, N-[2-(4-chlorophenyl)-1H-indol-3-ylmethylene]-N′-(4,5-dihydro-1H-imidazol-2-yl)hydrazine]	7.69	–	–
CN(N=Cc1c(-c2ccc(F)c(Cl)c2)[nH]c2ccccc12)C1=NCCN1 [Example 49, N′-[2-(3-chloro-4-fluoro-phenyl)-1H-indol-3-ylmethylene]-N-(4,5-dihydro-1H-imidazol-2-yl)-N-methylhydrazine]	–	93.8	–
CN(N=Cc1c(-c2ccccc2)[nH]c2ccccc12)C1=NCCN1 [Example 50, N-(4,5-dihydro-1H-imidazol-2-yl)-N′-(2-phenyl-1H-indol-3-ylmethylene)-N-methylhydrazine]	–	96.2	–
CC(C)C(=NNC(=N)N)c1c(-c2ccc(Cl)cc2)[nH]c2ccccc12 [Example 57, 2-{[2-(4-chloro-phenyl)-1H-indol-3-yl]-2-methyl-propylidene}hydrazinecarboximidamide]	–	–	% Inhibition (test compound dose 1000 nM): 74.6%
